The subject of data set [1] is Erysiphe graminis f. sp. hordei. In words: Erysiphe-Test (barley)/induction of resistance. Type of data set: in vivo, Erysiphe graminis f. sp. hordei on barley. The note with it: barley plants sprayed at 750 g/ha; inoculated 4 days after treatment; evaluated 7 days after inoculation; 0% = as control, 100% = no infection. The protocol: Erysiphe-Test (Barley)/Induction of Resistance
To produce a suitable preparation of active compound, 1 part by weight of active compound is mixed with the stated amounts of solvent and emulsifier, and the concentrate is diluted with water to the desired concentration.
To test for resistance-inducing activity, young cereal plants are sprayed with the preparation of active compound at the stated application rate. 4 days after the treatment, the plants are inoculated with spores of Erysiphe graminis f. sp. hordei. The plants are then placed in the greenhouse at 70% relative atmospheric humidity and a temperature of 18 C.
Evaluation is carried out 7 days after the inoculation. 0% means an efficacy which corresponds to that of the control, whereas an efficacy of 100% means that no infection is observed.

Structures are written as SMILES.

As usually defined, the melting point is the temperature of the solid-liquid transition.

`CC/C(=N\C#N)NCc1cc(Cl)nc(Cl)c1` gave an Efficacy in % in data set [1] of 80%.

Regarding `C/C(=N\C#N)NCc1cc(Cl)nc(Cl)c1`, the Efficacy in % in data set [1] came out at 95%.

The compound `N#C/N=C/NCc1cc(Cl)nc(Cl)c1` [Example 1, N′-cyano-N-[(2,6-dichloro-4-pyridinyl)methyl]imidoformamide] returned a melting point of 160 °C.

Compound `N#C/N=C/NCc1cc(Cl)nc(Cl)c1` [drawing 9] displayed an Efficacy in % in data set [1] of 100%.

Source of the values: patent US20050049285A1, “Dichloropyridyl methyl cyanamidines” (priority 2000, published 2005).
